The target of test [1] is T1, Substance-K receptor (Homo sapiens) (UniProt P21452).
T1 sequence (whole entry): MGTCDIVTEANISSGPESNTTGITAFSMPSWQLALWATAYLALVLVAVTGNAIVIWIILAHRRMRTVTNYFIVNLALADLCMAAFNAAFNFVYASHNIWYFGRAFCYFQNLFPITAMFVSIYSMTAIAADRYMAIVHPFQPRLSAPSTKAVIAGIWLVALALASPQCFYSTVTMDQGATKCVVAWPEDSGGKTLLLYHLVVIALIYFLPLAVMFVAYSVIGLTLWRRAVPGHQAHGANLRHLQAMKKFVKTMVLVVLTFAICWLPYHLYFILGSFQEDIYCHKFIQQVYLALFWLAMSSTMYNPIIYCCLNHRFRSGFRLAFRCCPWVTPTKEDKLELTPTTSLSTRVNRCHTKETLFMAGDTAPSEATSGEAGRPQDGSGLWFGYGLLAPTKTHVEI
The settings on record: 1 uM.
Description: Inhibitory activity against Tachykinin receptor 2 at a concentration of 1 uM

Test [2] deals with Substance-P receptor (Homo sapiens, UniProt P25103). As to the kind of experiment: Binding affinity towards Tachykinin receptor 1 in CHO cells using [3H]-Sar SP as radioligand. Format: cell-based.
Test [3] deals with T2, Substance-K receptor (Homo sapiens, UniProt P21452).
T2 sequence (P21452 whole entry): T1 sequence (whole entry)
As to the kind of experiment: Binding affinity towards Tachykinin receptor 2 in CHO cells using [3H]-neurokinin A as radioligand. It is filed as cell-based.

Test [4] has as its target T1, Substance-K receptor (Homo sapiens). The settings on record: 0.1 uM.
Description: Inhibitory activity against Tachykinin receptor 2 at a concentration of 0.1 uM

The term inhibition denotes the share of the control response that was lost under treatment. A lower inhibition goes with little suppression. What is called Ki is a dissociation constant, usually derived from enzyme kinetics or from competition with a known ligand.

Substance-P receptor, sequence (P25103 whole entry): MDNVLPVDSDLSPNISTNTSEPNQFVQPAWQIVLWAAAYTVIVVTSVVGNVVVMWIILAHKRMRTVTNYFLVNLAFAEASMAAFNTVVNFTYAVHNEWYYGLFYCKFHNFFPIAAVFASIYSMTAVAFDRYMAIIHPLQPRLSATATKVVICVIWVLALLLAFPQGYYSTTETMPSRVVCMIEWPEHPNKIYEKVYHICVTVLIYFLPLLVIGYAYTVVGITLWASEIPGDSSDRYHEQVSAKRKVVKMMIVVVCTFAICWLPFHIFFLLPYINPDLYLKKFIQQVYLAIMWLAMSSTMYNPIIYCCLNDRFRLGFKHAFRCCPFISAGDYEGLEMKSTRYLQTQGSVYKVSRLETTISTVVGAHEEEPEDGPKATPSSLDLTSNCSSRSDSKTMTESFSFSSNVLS

In test [1], `CO/N=C(/COCc1cc(C(F)(F)F)cc(C(F)(F)F)c1)C(CCN1CCC(O)(c2ccccc2)CC1)c1ccc(Cl)c(Cl)c1` (configuration not stated) showed an inhibition of 35%. Also, in test [2], the Ki is 25 nM.
For `CO/N=C(\COCc1cc(C(F)(F)F)cc(C(F)(F)F)c1)[C@@H](CCN1CCC(O)(c2ccccc2)CC1)c1ccc(Cl)c(Cl)c1`, the Ki in test [2] is 33 nM; in test [3], 397 nM.
For `CO/N=C(\COCc1cc(C(F)(F)F)cc(C(F)(F)F)c1)[C@H](CCN1CCC(O)(c2ccccc2)CC1)c1ccc(Cl)c(Cl)c1`, the Ki in test [2] was found to be 20 nM; in test [3] it was 7 nM.
`NC(=O)CN[C@@H](COCc1cc(C(F)(F)F)cc(C(F)(F)F)c1)[C@@H](CCN1CCC(O)(c2ccccc2)CC1)c1ccc(Cl)c(Cl)c1` displayed a Ki in test [2] of 0.7 nM. This molecule also yielded an inhibition in test [4] of 27%.
For `O/N=C(\COCc1cc(C(F)(F)F)cc(C(F)(F)F)c1)C(CCN1CCC(O)(c2ccccc2)CC1)c1ccc(Cl)c(Cl)c1` (configuration not stated), the Ki in test [2] came to 24 nM; in test [3] it was 122 nM.
Take `CO/N=C(\COCc1cc(C(F)(F)F)cc(C(F)(F)F)c1)C(CCN1CCC(O)(c2ccccc2)CC1)c1ccc(Cl)c(Cl)c1` (configuration not stated): the Ki in test [2] came out at 25 nM; in test [3] it was 21 nM.
With `NC(=O)CN[C@@H](COCc1cc(C(F)(F)F)cc(C(F)(F)F)c1)[C@H](CCN1CCC(O)(c2ccccc2)CC1)c1ccc(Cl)c(Cl)c1`, the Ki turned out to be 9 nM in test [2] and 34 nM in test [3].
With `NC(=O)CN[C@H](COCc1cc(C(F)(F)F)cc(C(F)(F)F)c1)C(c1ccccc1)c1ccccc1`, the Ki in test [2] is 0.9 nM.
In the case of `CC(=O)NC1(c2ccccc2)CCN(CC[C@H](CN(C)C(=O)c2ccccc2)c2ccc(Cl)c(Cl)c2)CC1` [SAREDUTANT], the affinity in test [3] corresponds to a Ki of 0.5 nM.
On to `O/N=C(/COCc1cc(C(F)(F)F)cc(C(F)(F)F)c1)C(CCN1CCC(O)(c2ccccc2)CC1)c1ccc(Cl)c(Cl)c1` (configuration not stated), for which the results for the Ki in test [2] and in test [3] were 34 nM and 358 nM, respectively.
Regarding `NC(=O)CNC(COCc1cc(C(F)(F)F)cc(C(F)(F)F)c1)C(CCN1CCC(O)(c2ccccc2)CC1)c1ccc(Cl)c(Cl)c1` (configuration not stated), the values for the Ki in test [2] and in test [3] were 4 nM and 34 nM, respectively.
Molecule `NC(=O)CN[C@H](COCc1cc(C(F)(F)F)cc(C(F)(F)F)c1)[C@@H](CCN1CCC(O)(c2ccccc2)CC1)c1ccc(Cl)c(Cl)c1` gave a Ki in test [2] of 5 nM. Besides, the inhibition in test [4] worked out at 10%.

The values above are taken from ChEMBL document CHEMBL1132779, “The design and synthesis of novel NK1/NK2 dual antagonists” (Bioorg Med Chem Lett, 2000).
